For 18 molecules, IC50 and melting point results are on record in patent US20080114047A1 (priority 2003, published 2008).

The structures appear in SMILES notation. Like-named read-outs stand apart in the source and are kept apart here.

In data set [1] the test system is Trypanosoma brucei rhodesiense. Put plainly: Anti-protozoan data: T.b.r. IC50. In kind it is cell-based. The following applies: read-out: T.b.r. IC50.
The nature of data set [2]: in vitro.
In data set [3] the test system is Trypanosoma cruzi. Put plainly: Anti-protozoan data: T. cruzi IC50. The following applies: read-out: T. cruzi IC50. It is filed as cell-based.
Data set [4] concerns Plasmodium falciparum. The data set can be described thus: Anti-protozoan data: P. falcip. IC50. In kind it is cell-based. Particulars: read-out: P. falcip. IC50.
Data set [5] deals with L. donovani axenic amastigotes. Put plainly: In vitro anti-leishmania activity (IC50 vs. L. donovani axenic amastigotes). It is filed as cell-based. The following applies: Leishmania donovani.
Where [6] appears, read: Tables VI(a), VI(c), read-out: Leishmania donovani IC50.
Setting [7] is: axenic amastigotes, Tables I-V, read-out: IC50 vs. L. donovani.

Molecule `Cl.Cl.c1cc(OCCCCCOc2ccc(C3=NCCN3)cc2)cc(-c2cc3cc(C4=NCCN4)ccc3o2)c1` [Compound 40, 2-(2-(3-(5-(4-(4,5-Dihydro-1H-imidazol-2-yl)phenoxy)pentyloxy)phenyl)benzofuran-5-yl)-4,5-dihydro-1H-imidazole dihydrochloride] returned a melting point of 180 to 182 °C. Moreover, in data set [1] (Tables VI(a), VI(c)), the IC50 stood at 0.597 µM. The molecule also registered an IC50 in data set [2] of 2.62 µM. The IC50 in data set [3] (Tables VI(a), VI(c)) stood at 7.88 µM. The IC50 in data set [4] (Tables VI(a), VI(c)) came out at 0.099 µM. The IC50 in data set [5] (setting [6]) stood at 16.6 ± 6.2 µM.

Molecule `CC(C)NC(=N)c1ccc(OCCCOc2cccc(-c3cc4ccc(C(=N)NC(C)C)cc4o3)c2)cc1.Cl.Cl` [Compound 57, 2-(3-(3-(4-(N-Isopropylcarbamimidoyl)phenoxy)propoxy)phenyl)-N-isopropylbenzofuran-6-carboxamidine dihydrochloride] registered a melting point of 213 to 217 °C. Further, in data set [1] (Tables VI(a), VI(c)), the IC50 came to 0.483 µM. The molecule further showed an IC50 in data set [2] of 82.3 µM. Moreover, in data set [3] (Tables VI(a), VI(c)), the IC50 is 69.8 µM. Moreover, the IC50 in data set [4] (Tables VI(a), VI(c)) is 0.202 µM. For the same molecule, the IC50 in data set [5] (setting [6]) stood at 10.6 ± 6.42 µM. Further, the IC50 in data set [5] (setting [7]) was 10.6 ± 6.42 µM.

The molecule `Cl.Cl.c1cc(OCCCOc2ccc(C3=NCCN3)cc2)cc(-c2cc3ccc(C4=NCCN4)cc3o2)c1` [Compound 58, 2-(2-(3-(3-(4-(4,5-Dihydro-1H-imidazol-2-yl)phenoxy)propoxy)phenyl)benzofuran-6-yl)-4,5-dihydro-1H-imidazole dihydrochloride] came in with a melting point of 208 to 211 °C. In addition, the IC50 in data set [1] (Tables VI(a), VI(c)) was 1.08 µM. This molecule also gave an IC50 in data set [2] of 10.1 µM. Besides, the IC50 in data set [3] (Tables VI(a), VI(c)) was 7.32 µM. In addition, the IC50 in data set [4] (Tables VI(a), VI(c)) was 0.0952 µM. Further, in data set [5] (setting [6]), the IC50 worked out at 4.73 ± 1.71 µM. For the same molecule, in data set [5] (setting [7]), the IC50 was found to be 4.73 ± 1.71 µM.

`Cl.Cl.c1cc(OCCCCOc2ccc(C3=NCCN3)cc2)cc(-c2cc3ccc(C4=NCCN4)cc3o2)c1` [Compound 61, 2-(2-(3-(4-(4-(4,5-Dihydro-1H-imidazol-2-yl)phenoxy)butoxy)phenyl)benzofuran-6-yl)-4,5-dihydro-1H-imidazole dihydrochloride] had a melting point of 198 to 200 °C. Also, in data set [1] (Tables VI(a), VI(c)), the IC50 was determined as 2.86 µM. Besides, half-maximal inhibition in data set [2] (IC50) required 5.84 µM. Moreover, the IC50 in data set [3] (Tables VI(a), VI(c)) came out at 8.92 µM. For the same molecule, in data set [4] (Tables VI(a), VI(c)), the IC50 was determined as 0.0976 µM. In addition, the half-inhibitory concentration (IC50) in data set [5] (setting [6]) worked out at 7.38 ± 2.55 µM. Also, the IC50 in data set [5] (setting [7]) was 7.38 ± 2.55 µM.

Regarding `CC(C)NC(=N)c1ccc(OCCCCCOc2cccc(-c3cc4ccc(C(=N)NC(C)C)cc4o3)c2)cc1.Cl.Cl` [Compound 63, 2-(3-(5-(4-(N-Isopropylcarbamimidoyl)phenoxy)pentyloxy)phenyl)-N-isopropylbenzofuran-6-carboxamidine dihydrochloride], the melting point was in the range of 253 to 255 °C. Further, the IC50 in data set [1] (Tables VI(a), VI(c)) came out at 0.911 µM. In addition, the IC50 in data set [2] amounted to 20.1 µM. Besides, the IC50 in data set [3] (Tables VI(a), VI(c)) was determined as 29.7 µM. Also, in data set [4] (Tables VI(a), VI(c)), the IC50 turned out to be 0.294 µM. Further, the IC50 in data set [5] (setting [6]) is 8.92 ± 0.71 µM. In addition, the IC50 in data set [5] (setting [7]) turned out to be 8.92 ± 0.71 µM.

Consider `Cl.Cl.c1cc(OCCCCCOc2ccc(C3=NCCN3)cc2)cc(-c2cc3ccc(C4=NCCN4)cc3o2)c1` [Compound 64, 2-(2-(3-(5-(4-(4,5-Dihydro-1H-imidazol-2-yl)phenoxy)pentyloxy)phenyl)benzofuran-6-yl) -4,5-dihydro-1H-imidazole dihydrochloride], for which the melting point lay in the range of 188 to 190 °C. In data set [1] (Tables VI(a), VI(c)), the half-maximal inhibitory concentration (IC50) turned out to be 0.442 µM. Besides, half-maximal inhibition in data set [2] (IC50) required 3.7 µM. In data set [3] (Tables VI(a), VI(c)), the IC50 came to 3.62 µM. Further, in data set [4] (Tables VI(a), VI(c)), the IC50 was 0.0469 µM. Also, the IC50 in data set [5] (setting [6]) was determined as 16.5 ± 3.45 µM. Besides, the IC50 in data set [5] (setting [7]) was 16.5 ± 3.45 µM.

Consider `CC(C)NC(=N)c1ccc(OCCCCOc2ccc(-c3cc4ccc(C(=N)NC(C)C)cc4o3)cc2)cc1.Cl.Cl` [Compound 72, 2-(4-(4-(4-(N-Isopropylcarbamimidoyl)phenoxy)butoxy)phenyl)-N-isopropylbenzofuran-6-carboxamidine dihydrochloride], for which the melting point lay in the range of 280 to 283 °C. Also, in data set [1] (Tables VI(a), VI(c)), the IC50 is 1.75 µM. Besides, the midpoint of inhibition in data set [2], the IC50, lay at 15.9 µM. Also, the IC50 in data set [3] (Tables VI(a), VI(c)) was 12.5 µM. In data set [4] (Tables VI(a), VI(c)), the IC50 was 0.139 µM. In addition, in data set [5] (setting [6]), the IC50 is 4.52 ± 1.81 µM. Moreover, the IC50 in data set [5] (setting [7]) came out at 4.52 ± 1.81 µM.

In turn, `Cl.Cl.c1cc(C2=NCCN2)ccc1OCCCCOc1ccc(-c2cc3ccc(C4=NCCN4)cc3o2)cc1` [Compound 73, 2-(2-(4-(4-(4-(4,5-Dihydro-1H-imidazol-2-yl)phenoxy)butoxy)phenyl)benzofuran-6-yl)-4,5-dihydro-1H-imidazole dihydrochloride] gave a melting point of 306 to 307 °C. For the same molecule, in data set [1] (Tables VI(a), VI(c)), the IC50 came out at 0.942 µM. Also, in data set [2], the IC50 is 16.9 µM. Besides, in data set [3] (Tables VI(a), VI(c)), the IC50 turned out to be 9.82 µM. In data set [4] (Tables VI(a), VI(c)), the IC50 was determined as 0.0461 µM. In addition, in data set [5] (setting [6]), the IC50 came out at 13.2 ± 0.86 µM. Further, in data set [5] (setting [7]), the IC50 came out at 13.2 ± 0.86 µM.

As to `Cl.Cl.c1cc(C2=NCCN2)ccc1OCCCCCOc1ccc(-c2cc3ccc(C4=NCCN4)cc3o2)cc1` [Compound 76, 2-(2-(4-(5-(4-(4,5-Dihydro-1H-imidazol-2-yl)phenoxy)pentyloxy)phenyl)benzofuran-6-yl)-4,5-dihydro-1H-imidazole dihydrochloride], the melting point lay within 212 to 215 °C. In data set [1] (Tables VI(a), VI(c)), the IC50 came to 0.262 µM. In data set [2], this molecule came in with an IC50 of 3.2 µM. Moreover, the IC50 in data set [3] (Tables VI(a), VI(c)) was 2.12 µM. For the same molecule, the IC50 in data set [4] (Tables VI(a), VI(c)) stood at 0.028 µM. For the same molecule, in data set [5] (setting [6]), the IC50 was determined as 10.4 ± 0.78 µM. In data set [5] (setting [7]), the IC50 came to 10.4 ± 0.78 µM.

As for `CC(C)NC(=N)c1ccc(-c2cc3cc(C(=N)NC(C)C)ccc3o2)cc1` [Compound 164, 2-(4-(N-isopropylcarbamimidoyl)phenyl)-N-isopropylbenzofuran-5-carboxamidine], the IC50 in data set [1] was 0.125 µM; in data set [2], over 198 µM; in data set [3], over 198 µM; in data set [4], 0.073 µM; in data set [5] (read-out: L. Donovani IC50), 1.58 ± 1.09 µM.

Turning to `CONC(=N)c1ccc(-c2cc3cc(C(=N)NOC)ccc3o2)cc1` [Compound 179, 2-(4-(N-Methoxycarbamimidoyl)phenyl)-N-methoxybenzofuran-5-carboxamidine], the IC50 is 75.4 µM in data set [1]; over 219 µM in data set [2]; over 219 µM in data set [3]; 2.5 µM in data set [4]; over 100 µM in data set [5] (read-out: L. Donovani IC50).

With `N=C(NO)c1ccc2cc(CCCCCc3cc4ccc(C(=N)NO)cc4o3)oc2c1` [Compound 184, 2-(5-(6-(N-Hydroxycarbamimidoyl)benzofuran-2-yl)pentyl)-N-hydroxybenzofuran-6-carboxamidine], the IC50 in data set [1] (Tables VI(a), VI(c)) was 2.2 µM; in data set [2], 19.4 µM; in data set [3] (Tables VI(a), VI(c)), 4.9 µM; in data set [4] (Tables VI(a), VI(c)), 17.2 µM; in data set [5] (setting [6]) it was 22.2 ± 0.64 µM.

For `N=C(NO)c1ccc2oc(CCCc3cc4cc(C(=N)NO)ccc4o3)cc2c1` [Compound 185, 2-(3-(5-(N-Hydroxycarbamimidoyl)benzofuran-2-yl)propyl)-N-hydroxybenzofuran-5-carboxamidine], the IC50 in data set [1] (Tables VI(a), VI(c)) is 4.79 µM; in data set [2], 23.8 µM; in data set [3] (Tables VI(a), VI(c)), 9.4 µM; in data set [4] (Tables VI(a), VI(c)), over 2 µM; in data set [5] (setting [6]), over 50 µM.

With `N=C(NO)c1ccc2oc(CCCCc3cc4cc(C(=N)NO)ccc4o3)cc2c1` [Compound 186, 2-(4-(5-(N-Hydroxycarbamimidoyl)benzofuran-2-yl)butyl)-N-hydroxybenzofuran-5-carboxamidine], the 50% inhibitory concentration (IC50) in data set [1] (Tables VI(a), VI(c)) is 4.87 µM; in data set [2], over 184 µM; in data set [3] (Tables VI(a), VI(c)), 152 µM; in data set [4] (Tables VI(a), VI(c)), over 2 µM; in data set [5] (setting [6]) it was over 100 µM.

Consider `CONC(=N)c1ccc2cc(CCCCCc3cc4ccc(C(=N)NOC)cc4o3)oc2c1` [Compound 187, 2-(5-(6-(N-Methoxycarbamimidoyl)benzofuran-2-yl)pentyl)-N-methoxybenzofuran-6-carboxamidine], for which the IC50 is 13.8 µM in data set [1] (Tables VI(a), VI(c)); 34.6 µM in data set [2]; 38.4 µM in data set [3] (Tables VI(a), VI(c)); 9.76 µM in data set [4] (Tables VI(a), VI(c)); over 50 µM in data set [5] (setting [6]).

Consider `CONC(=N)c1ccc2oc(CCCc3cc4cc(C(=N)NOC)ccc4o3)cc2c1` [Compound 188, 2-(3-(5-(N-Methoxycarbamimidoyl)benzofuran-2-yl)propyl)-N-methoxybenzofuran-5-carboxamidine], for which the IC50 was 8.37 µM in data set [1] (Tables VI(a), VI(c)); over 157 µM in data set [2]; over 157 µM in data set [3] (Tables VI(a), VI(c)); over 1.7 µM in data set [4] (Tables VI(a), VI(c)); over 100 µM in data set [5] (setting [6]).

Consider `CONC(=N)c1ccc2oc(CCCCc3cc4cc(C(=N)NOC)ccc4o3)cc2c1` [Compound 189, 2-(4-(5-(N-Methoxycarbamimidoyl)benzofuran-2-yl)butyl)-N-methoxybenzofuran-5-carboxamidine], for which the IC50 in data set [1] (Tables VI(a), VI(c)) is 6.87 µM; in data set [2] it was 74.3 µM; in data set [3] (Tables VI(a), VI(c)), 61.9 µM; in data set [4] (Tables VI(a), VI(c)), about 2 µM; in data set [5] (setting [6]), over 100 µM.

As to `N=C(NO)c1ccc2oc(CCCCCc3cc4cc(C(=N)NO)ccc4o3)cc2c1` [Compound 192, 2-(5-(5-(N-Hydroxycarbamimidoyl)benzofuran-2-yl)pentyl)-N-hydroxybenzofuran-5-carboxamidine], the IC50 in data set [1] (Tables VI(a), VI(c)) was 5 µM; in data set [2], 27 µM; in data set [3] (Tables VI(a), VI(c)) it was 11.9 µM; in data set [4] (Tables VI(a), VI(c)) it was over 1.9 µM; in data set [5] (setting [6]), 14.3 ± 6.49 µM.
